Assay results taken from US8158810B2 (Gilead Sciences, Inc., priority 2006, dated 2012).
Blank lines part the entries; values can stand above or below the compound they belong to.

Experiments:
hMAO-B = target: T1, hMAO-B (Homo sapiens, UniProt P27338); test: MAO-B inhibition assay; assay type: biochemical; conditions: No = no inhibition; for hMAO-B inhibition at 10 μM: printed in the IC50 hMAO-B column
T1 construct: purchased Sigma M7441
T1 sequence (P27338 1-520): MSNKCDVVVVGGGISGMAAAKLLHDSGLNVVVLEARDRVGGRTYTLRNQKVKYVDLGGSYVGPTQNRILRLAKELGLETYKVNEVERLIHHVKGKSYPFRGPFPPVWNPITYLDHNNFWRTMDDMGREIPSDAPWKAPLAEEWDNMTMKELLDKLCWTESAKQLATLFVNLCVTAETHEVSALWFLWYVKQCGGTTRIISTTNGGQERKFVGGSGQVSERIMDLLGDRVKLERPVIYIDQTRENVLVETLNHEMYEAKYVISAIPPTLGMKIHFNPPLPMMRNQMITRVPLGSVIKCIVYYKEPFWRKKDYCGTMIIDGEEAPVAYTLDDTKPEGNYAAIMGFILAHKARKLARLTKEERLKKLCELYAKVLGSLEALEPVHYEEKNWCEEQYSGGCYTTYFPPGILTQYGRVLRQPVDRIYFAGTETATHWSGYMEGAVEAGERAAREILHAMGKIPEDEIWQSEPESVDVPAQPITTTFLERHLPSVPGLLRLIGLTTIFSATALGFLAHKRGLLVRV
Protocol: (§1) MAO-A (Sigma M7316) and MAO-B (Sigma M7441) inhibition assays were conducted in 96-well micro-plates according to the method described by Zhou et al. [Analytical Biochemistry 253, 169-174, 1997]. […] Reactions were initiated by the addition of a pre-mixed solution of tyramine, horseradish peroxidase and Amplex Red, and were allowed to proceed at 37° C. for 30 min. Enzyme activities were determined by measuring absorbance at 570 nm (SpectralMax Plate reader), absorbance of oxidized Amplex Red generated by this horseradish peroxidase-coupled reaction. Nonspecifically formed products were determined in the presence of 2 and 10 µM clorgyline and deprenyl for MAO-A and MAO-B, respectively. IC50 values were determined by fitting concentration-inhibition data to sigmoidal dose-response curves with two-floating parameters: IC50 and Hill coefficient.

hMAO-A = target: T2, hMAO-A (Homo sapiens, UniProt P21397); test: MAO-A inhibition assay; assay type: biochemical; conditions: No = no inhibition; for hMAO-A inhibition up to 10 μM: printed in the IC50 hMAO-A column
T2 construct: purchased Sigma M7316
T2 sequence (P21397 1-527): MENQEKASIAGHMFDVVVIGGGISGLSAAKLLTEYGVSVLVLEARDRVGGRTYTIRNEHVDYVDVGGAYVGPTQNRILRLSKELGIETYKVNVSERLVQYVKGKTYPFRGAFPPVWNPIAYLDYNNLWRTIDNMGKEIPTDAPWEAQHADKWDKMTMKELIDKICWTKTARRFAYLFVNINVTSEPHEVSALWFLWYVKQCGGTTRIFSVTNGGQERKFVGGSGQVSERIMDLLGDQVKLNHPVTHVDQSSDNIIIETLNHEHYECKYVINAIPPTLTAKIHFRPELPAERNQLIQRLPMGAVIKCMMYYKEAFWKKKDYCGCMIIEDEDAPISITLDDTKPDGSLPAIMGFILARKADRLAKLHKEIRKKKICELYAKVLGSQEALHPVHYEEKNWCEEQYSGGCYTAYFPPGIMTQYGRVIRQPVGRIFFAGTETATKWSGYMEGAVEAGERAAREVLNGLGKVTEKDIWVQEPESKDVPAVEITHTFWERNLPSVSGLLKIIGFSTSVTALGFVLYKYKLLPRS
Protocol: as §1

hMAO-B inhibition up to 10 μM (hMAO-B): No
hMAO-A inhibition up to 10 μM (hMAO-A): No
Structure (SMILES): COc1ccc(COc2ccc3c(=O)c(-c4ccc(O)cc4)coc3c2)cc1C(F)(F)F [PT-27, 3-(4-hydroxyphenyl)-7-{[4-methoxy-3-(trifluoromethyl)phenyl]methoxy}chromen-4-one]

hMAO-B inhibition at 10 μM (hMAO-B): No
hMAO-A inhibition up to 10 μM (hMAO-A): No
Structure (SMILES): O=C(COc1ccc2c(=O)c(-c3ccc(O)cc3)coc2c1)c1ccccc1C(F)(F)F [PT-85, 3(4-hydroxyphenyl)-7-{2-oxo-2-[2-(trifluoromethyl)phenyl]ethoxy}chromen-4-one]

hMAO-B inhibition at 10 μM (hMAO-B; listed as PT-104, 10 µM): No
hMAO-A inhibition up to 10 μM (hMAO-A): No
Structure (SMILES): O=c1c(-c2ccc(O)cc2)coc2cc(OCc3noc(-c4ccc(F)cc4)n3)ccc12 [PT-11, 7-{[5-(4-fluorophenyl)(1,2,4-oxadiazol-3-yl)]methoxy}-3-(4-hydroxyphenyl)chromen-4-one]

hMAO-B inhibition at 10 μM (hMAO-B): No
hMAO-A inhibition up to 10 μM (hMAO-A): No
Structure (SMILES): O=c1c(-c2ccc(O)cc2)coc2cc(OCc3cncc(C(F)(F)F)c3)ccc12 [PT-94, 3-(4-hydroxyphenyl)-7-{[5-(trifluoromethyl)(3-pyridyl)]methoxy}chromen-4-one]

hMAO-B inhibition up to 10 μM (hMAO-B): No
hMAO-A inhibition up to 10 μM (hMAO-A): No
Structure (SMILES): O=C(O)c1cccc(-c2nc(COc3ccc4c(=O)c(-c5ccc(O)cc5)coc4c3)no2)c1 [PT-41, 3-(3-{[3-(4-hydroxyphenyl)-4-oxochromen-7-yloxy]methyl}-1,2,4-oxadiazol-5-yl)benzoic acid]

hMAO-B inhibition at 10 μM (hMAO-B): No
hMAO-A inhibition up to 10 μM (hMAO-A): No
Structure (SMILES): O=c1c(-c2ccc(O)cc2)coc2cc(OCc3coc(-c4ccc(F)cc4)n3)ccc12 [PT-16, 7-{[2-(4-fluorophenyl)(1,3-oxazol-4-yl)]methoxy}-3-(4-hydroxyphenyl)chromen-4-one]

hMAO-B inhibition up to 30 μM (hMAO-B): No
hMAO-A inhibition up to 40 μM (hMAO-A): No
Structure (SMILES): O=C(O)c1ccc(COc2ccc3c(=O)c(-c4ccc(O)cc4)coc3c2)cc1 [PT-36, 4-{[3-(4-hydroxyphenyl)-4-oxochromen-7-yloxy]methyl}benzoic acid]

hMAO-B inhibition up to 30 μM (hMAO-B): No
hMAO-A inhibition up to 30 μM (hMAO-A): No
Structure (SMILES): O=c1c(-c2ccc(O)cc2)coc2cc(OCc3nc(-c4ccc(Cl)cc4)no3)ccc12 [PT-44, 3-(4-hydroxyphenyl)-7-({3-[4-chlorophenyl](1,2,4-oxadiazol-5-yl)}methoxy)chromen-4-one]

hMAO-A inhibition up to 10 μM (hMAO-A): No
Structure (SMILES): O=C(O)c1coc(COc2ccc3c(=O)c(-c4ccc(O)cc4)coc3c2)n1 [PT-102, 2-{[3-(4-hydroxyphenyl)-4-oxochromen-7-yloxy]methyl}-1,3-oxazole-4-carboxylic acid]

hMAO-A inhibition up to 10 μM (hMAO-A): No
Structure (SMILES): O=C(COc1ccc2c(=O)c(-c3ccc(O)cc3)coc2c1)Nc1ccccc1C(F)(F)F [PT-84, 2-[3-(4-hydroxyphenyl)-4-oxochromen-7-yloxy]-N-[2-(trifluoromethyl)phenyl]-acetamide]

hMAO-A inhibition up to 10 μM (hMAO-A): No
Structure (SMILES): O=c1c(-c2ccc(O)cc2)coc2cc(OCCCc3ccccc3)ccc12 [PT-57, 3-(4-hydroxyphenyl)-7-(3-phenylpropoxy)chromen-4-one]

Continued, compound first:

Structure (SMILES): O=c1c(-c2ccc(O)cc2)coc2cc(OCc3noc(-c4ccc(C(F)(F)F)cc4)n3)ccc12 [PT-38, 3-(4-hydroxyphenyl)-7-({5-[4-(trifluoromethyl)phenyl](1,2,4-oxadiazol-3-yl)}methoxy)chromen-4-one]
hMAO-B inhibition up to 30 μM (hMAO-B): No
hMAO-A inhibition up to 30 μM (hMAO-A): No

Structure (SMILES): O=c1c(-c2ccc(O)cc2)coc2cc(OCc3nc(-c4cccnc4)no3)ccc12 [PT-114, 3-(4-hydroxyphenyl)-7-[(3-(3-pyridyl)(1,2,4-oxadiazol-5-yl))methoxy]chromen-4-one]
hMAO-B inhibition at 10 μM (hMAO-B): No
hMAO-A inhibition up to 10 μM (hMAO-A): No

Structure (SMILES): COc1ccc2c(COc3ccc4c(=O)c(-c5ccc(O)cc5)coc4c3)cc(=O)oc2c1 [PT-119, 4-{[3-(4-hydroxyphenyl)-4-oxochromen-7-yloxy]methyl}-7-methoxychromen-2-one]
hMAO-B inhibition at 10 μM (hMAO-B): No
hMAO-A inhibition up to 10 μM (hMAO-A): No

Structure (SMILES): O=c1c(-c2ccc(O)cc2)coc2cc(OCc3noc(-c4cc(C(F)(F)F)ccc4C(F)(F)F)n3)ccc12 [PT-31, 7-({5-[2,5-bis(trifluoromethyl)phenyl](1,2,4-oxadiazol-3-yl)}methoxy)-3-(4-hydroxyphenyl)chromen-4-one]
hMAO-B inhibition up to 10 μM (hMAO-B): No
hMAO-A inhibition up to 10 μM (hMAO-A): No

Structure (SMILES): O=c1c(-c2ccc(O)cc2)coc2cc(OCc3noc(-c4cc(F)cc(C(F)(F)F)c4)n3)ccc12 [PT-29, 7-({5-[3-fluoro-5-(trifluoromethyl)phenyl](1,2,4-oxadiazol-3-yl)}methoxy)-3-(4-hydroxyphenyl)chromen-4-one]
hMAO-B inhibition up to 30 μM (hMAO-B): No
hMAO-A inhibition up to 30 μM (hMAO-A): No

Structure (SMILES): CCOC(=O)c1cnn(CCOc2ccc3c(=O)c(-c4ccc(O)cc4)coc3c2)c1 [PT-122, ethyl 1-{2-[3-(4-hydroxyphenyl)-4-oxochromen-7-yloxy]ethyl}pyrazole-4-carboxylate]
hMAO-B inhibition at 10 μM (hMAO-B): No
hMAO-A inhibition up to 10 μM (hMAO-A): No

Structure (SMILES): O=c1c(-c2ccc(O)cc2)coc2cc(OCc3noc(-c4ccccc4)n3)ccc12 [PT-24, 3-(4-hydroxyphenyl)-7-[(5-phenyl(1,2,4-oxadiazol-3-yl))methoxy]chromen-4-one]
hMAO-B inhibition up to 40 μM (hMAO-B; up to 40 μM): No
hMAO-A inhibition up to 40 μM (hMAO-A): No

Structure (SMILES): O=c1c(-c2ccc(O)cc2)coc2cc(OCc3nnc(-c4ccccc4Cl)o3)ccc12 [PT-80, 7-{[5-(2-chlorophenyl)(1,3,4-oxadiazol-2-yl)]methoxy}-3-(4-hydroxyphenyl)chromen-4-one]
hMAO-B inhibition at 10 μM (hMAO-B): No
hMAO-A inhibition up to 10 μM (hMAO-A): No

Structure (SMILES): O=c1c(-c2ccc(O)cc2)coc2cc(OCc3noc(-c4cccc(F)c4)n3)ccc12 [PT-42, 7-{[5-(3-fluorophenyl)(1,2,4-oxadiazol-3-yl)]methoxy}-3-(4-hydroxyphenyl)chromen-4-one]
hMAO-B inhibition up to 10 μM (hMAO-B): No
hMAO-A inhibition up to 10 μM (hMAO-A): No

Structure (SMILES): O=c1c(-c2ccc(O)cc2)coc2cc(OCc3nnc(-c4cc(F)cc(C(F)(F)F)c4)o3)ccc12 [PT-74, 7-({5-[3-fluoro-5-(trifluoromethyl)phenyl](1,3,4-oxadiazol-2-yl)}methoxy)-3-(4-hydroxyphenyl)chromen-4-one]
hMAO-A inhibition up to 10 μM (hMAO-A): No

Structure (SMILES): N#Cc1ccc(-c2coc3cc(OCc4nnc(-c5cc(F)cc(C(F)(F)F)c5)o4)ccc3c2=O)cc1 [PT-68, 4-[7-({5-[5-fluoro-3-(trifluoromethyl)phenyl](1,3,4-oxadiazol-2-yl)}methoxy)-4-oxochromen-3-yl]benzenecarbonitrile]
hMAO-A inhibition up to 10 μM (hMAO-A): No

Structure (SMILES): O=c1c(-c2ccc(O)cc2)coc2cc(OCCNCc3cccc(C(F)(F)F)c3)ccc12 [PT-99, 3-(4-hydroxyphenyl)-7-[2-({[3-(trifluoromethyl)phenyl]methyl}amino)ethoxy]chromen-4-one]
hMAO-A inhibition up to 10 μM (hMAO-A): No

Structure (SMILES): O=c1c(-c2ccc(O)cc2)coc2cc(OCc3nnc(-c4cccc(F)c4)o3)ccc12 [PT-58, 7-{[5-(3-fluorophenyl)(1,3,4-oxadiazol-2-yl)]methoxy}-3-(4-hydroxyphenyl)chromen-4-one]
hMAO-A inhibition up to 10 μM (hMAO-A): No

Structure (SMILES): CS(=O)(=O)c1ccc(-c2coc3cc(OCc4noc(-c5cc(F)cc(C(F)(F)F)c5)n4)ccc3c2=O)cc1 [PT-71, 7-({5-[3-fluoro-5-(trifluoromethyl)phenyl](1,2,4-oxadiazol-3-yl)}methoxy)-3-[4-(methylsulfonyl)phenyl]chromen-4-one]
hMAO-A inhibition up to 10 μM (hMAO-A): No
